Measured values as given in patent US12600732B2, “Bifunctional compounds for degrading BTK via ubiquitin proteosome pathway” (NURIX THERAPEUTICS, INC., priority 2019, dated 2026).
Where “and” joins values, the source holds several entries; their conditions need not be identical. Equal entries are not always repeated.

Legend:
[1] = tested on: BTK; test: Non-human primate (cyno) DRF PD, BTK remaining in B cells; format: in vivo; conditions: blood, 24 h after previous dose
Procedure: This example evaluates potency and tolerability of BTK CTMs following multiple, consecutive days of dosing and examines potency of compounds for BTK and Aiolos degradation. The data in the table below is from a study in which animals were dosed daily with the designated oral dose. Analysis for BTK and Aiolos levels was performed twenty-four hours following the previous dose.

[2] = molecular target: T1, BTK (Mus musculus, UniProt P35991); test: In vivo degradation of BTK in mouse PD experiments with oral dosing
T1 construct: from tissue; host or cells: mouse blood B cells / splenocytes (CD-1 or BALB/c)
Procedure, shortened: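 CD-1 or BALB/c mice dosed by oral gavage, screens at 90 mg/kg for 6 h, later at lower doses/longer times. Blood or splenocyte BTK measured by intracellular flow cytometry (or HTRF); % degradation from B-cell minus T-cell BTK geometric MFI, relative to vehicle.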

[3] = tested on: BTK; test: PD data from cyno (BTK degradation); format: in vivo; conditions: blood
From the text: In this example, compounds were profiled for activity in non-mouse species.

[4] = tested on: TMD8 BTK C481S tumor cells; test: TMD8 BTK C481S xenograft efficacy study; format: in vivo, mouse; conditions: PO
Procedure: […] Tumor growth inhibition (% TGI) were calculated on the final day of measurement using the equation [1−(T−T0/C−T0)]×100, where T and C represent the mean size of tumors in the treated (T) and control (C) groups, and T0 refers to the tumor size at randomization.
This example examines the activity of various BTK CTMs in relevant disease models, including the WT and C481S TMD8 model, which models B cell malignancies with/without inhibitor-driven BTK mutations at C481.

[5] = molecular target: BTK (Homo sapiens, UniProt Q06187); test: BTK degradation (Total BTK HTRF) in Rec-1 cells (Mantle Cell Lymphoma model); format: cell-based; set-up: endogenous in cells; host or cells: TMD8, Mino, Rec-1; conditions: treatment time 4 h
Procedure: BTK levels were determined using Cisbio Total-BTK HTRF (Homologous Time-Resolved Fluorescence) kit (63ADK064PEG) according to the manufacturer's protocol. Briefly, cells were incubated in 1× supplied lysis buffer for 30 minutes. In an opaque white low volume 96-well plate (Cisbio, 66PL96005), cell lysate was combined with two different specific BTK antibodies, one conjugated with Eu^3+-Cryptate FRET donor and one conjugated with d2 FRET acceptor. Assay controls include wells containing cell lysate with only the Eu^3+-Cryptate FRET donor antibody and wells containing both HTRF antibodies and lysis buffer without cells or control lysate provided by Cisbio. HTRF ratio was calculated as (acceptor signal at 665 nm/donor signal at 620 nm)×10^4. Background HTRF levels were determined from the control well containing the donor, but no acceptor, antibody. Background HTRF levels were subtracted from all samples. Readouts were reported as HTRF levels relative to HTRF levels of DMSO-treated cells. Four-parameter non-linear regressions were performed in GraphPad Prism 7.02 to obtain DC50 values.
This example evaluates the potency of CTMs in a model of Mantle Cell Lymphoma (MCL). To evaluate potential therapeutic indications, BTK CTMs were assayed in models of Mantle Cell Lymphoma as with the TMD8 cells (ABC-DLBCL) above. Tested CTMs had similar potencies for BTK degradation in the MCL cell lines (Mino and Rec-1) and TMD8 cells.

[6] = tested on: TMD8 C481S cells; test: Cell viability assay (CellTiter-Glo), TMD8 C481S cells; conditions: for EC50: Homo sapiens, TMD8, 72 h; for EMAX (% viable cells): TMD8 C481S cells, treatment time 72 h
[7] = 10 mg/kg PO daily, 1 day of dosing
[8] = 10 mg/kg PO daily, 14 days of dosing
[9] = 30 mg/kg PO daily, 1 day of dosing
[10] = 30 mg/kg PO daily, 14 days of dosing
[11] = 100 mg/kg PO daily, 1 day of dosing
[12] = 100 mg/kg PO daily, 14 days of dosing
[13] = oral dose 30 mg/kg, 24 h, splenocytes, HTRF
[14] = 30 mg/kg, QD, 23 days of dosing
[15] = oral dose 30 mg/kg, 24 h, blood, flow cytometry

T1 sequence (P35991 whole entry): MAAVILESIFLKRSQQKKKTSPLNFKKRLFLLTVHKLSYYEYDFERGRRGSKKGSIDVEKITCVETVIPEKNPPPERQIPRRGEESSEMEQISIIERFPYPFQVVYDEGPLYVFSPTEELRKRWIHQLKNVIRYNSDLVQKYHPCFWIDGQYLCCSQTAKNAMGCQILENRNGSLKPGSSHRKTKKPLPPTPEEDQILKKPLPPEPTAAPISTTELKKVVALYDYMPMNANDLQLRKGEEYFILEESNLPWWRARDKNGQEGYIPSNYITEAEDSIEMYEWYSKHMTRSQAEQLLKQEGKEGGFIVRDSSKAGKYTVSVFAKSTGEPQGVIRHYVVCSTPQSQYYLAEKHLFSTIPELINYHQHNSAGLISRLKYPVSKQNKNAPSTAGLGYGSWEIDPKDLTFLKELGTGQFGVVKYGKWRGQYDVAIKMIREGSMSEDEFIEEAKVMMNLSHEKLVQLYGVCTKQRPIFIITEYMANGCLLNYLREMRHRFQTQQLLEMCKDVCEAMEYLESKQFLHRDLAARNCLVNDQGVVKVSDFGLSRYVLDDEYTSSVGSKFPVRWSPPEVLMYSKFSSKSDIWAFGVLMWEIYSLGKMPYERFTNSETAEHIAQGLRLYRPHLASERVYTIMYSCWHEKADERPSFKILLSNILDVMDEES
Sequence of BTK (Homo sapiens, UniProt Q06187) (Q06187 whole entry): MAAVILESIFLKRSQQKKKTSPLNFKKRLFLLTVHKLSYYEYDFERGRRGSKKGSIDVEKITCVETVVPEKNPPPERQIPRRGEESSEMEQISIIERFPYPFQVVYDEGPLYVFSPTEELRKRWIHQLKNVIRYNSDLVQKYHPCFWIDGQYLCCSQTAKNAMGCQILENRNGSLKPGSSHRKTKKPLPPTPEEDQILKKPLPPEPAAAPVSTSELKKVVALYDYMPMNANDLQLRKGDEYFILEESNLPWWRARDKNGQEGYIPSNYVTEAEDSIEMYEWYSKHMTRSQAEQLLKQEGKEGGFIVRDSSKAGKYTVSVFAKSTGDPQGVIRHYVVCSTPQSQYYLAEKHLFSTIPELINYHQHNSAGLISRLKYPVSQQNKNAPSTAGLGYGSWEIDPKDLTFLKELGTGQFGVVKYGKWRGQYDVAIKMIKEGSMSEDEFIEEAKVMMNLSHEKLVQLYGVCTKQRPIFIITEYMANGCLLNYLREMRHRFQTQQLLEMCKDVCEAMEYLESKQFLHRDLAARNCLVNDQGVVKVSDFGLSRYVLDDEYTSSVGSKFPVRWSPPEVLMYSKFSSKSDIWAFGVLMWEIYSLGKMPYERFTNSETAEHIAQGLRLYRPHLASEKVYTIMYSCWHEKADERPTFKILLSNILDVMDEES

SMILES: CN1CCN([C@@H]2CCCN(c3cnc(C(N)=O)c(Nc4ccc(C5CCN(C[C@H]6CCN(c7ccc8c(c7)C(=O)N(C7CCC(=O)NC7=O)C8=O)C6)CC5)cc4)n3)C2)C1=O (stereo partly drawn) [Compound 44]
- % BTK Remaining in B cells [1, 7]: 35%
- % BTK Remaining in B cells [1, 8]: 16%
- % BTK Remaining in B cells [1, 9]: 31%
- % BTK Remaining in B cells [1, 10]: 10%
- % BTK Remaining in B cells [1, 11]: 14%
- % BTK Remaining in B cells [1, 12]: 6%
- % BTK Remaining ([2]; dose 1(IV) mg/kg, 24 h, splenocytes, HTRF): 58%
- % BTK Remaining ([2]; oral dose 1 mg/kg, 6 h, splenocytes, HTRF): 58%
- % BTK Remaining ([2]; oral dose 3 mg/kg, 6 h, splenocytes, HTRF): 32%
- % BTK Remaining ([2]; oral dose 10 mg/kg, 6 h, splenocytes, HTRF): 11%
- % BTK Remaining ([2]; oral dose 10 mg/kg, 24 h, splenocytes, HTRF): 34%
- % BTK Remaining ([2]; oral dose 30 mg/kg, 6 h, splenocytes, HTRF): 4%
- % BTK Remaining [2, 13]: 23%
- % BTK Remaining ([2]; oral dose 90 mg/kg, 6 h, splenocytes, HTRF): 4%
- % BTK Remaining ([3]; 1 mg/kg IV, 2 h): 6%
- % BTK Remaining ([3]; 1 mg/kg IV, 4 h): 6%
- % BTK Remaining ([3]; 1 mg/kg IV, 8 h): 7%
- % BTK Remaining ([3]; 1 mg/kg IV, 24 h): 9%
- % BTK Remaining ([3]; 1 mg/kg PO, 2 h): 85%
- % BTK Remaining ([3]; 1 mg/kg PO, 4 h): 65%
- % BTK Remaining ([3]; 1 mg/kg PO, 8 h): 52%
- % BTK Remaining ([3]; 1 mg/kg PO, 24 h): 40%
- % BTK Remaining ([3]; 10 mg/kg PO, 2 h, 10 mg/kg): 59% and 82%
- % BTK Remaining ([3]; 10 mg/kg PO, 4 h, 10 mg/kg): 35% and 42%
- % BTK Remaining ([3]; 10 mg/kg PO, 8 h, 10 mg/kg): 22% and 27%
- % BTK Remaining ([3]; 10 mg/kg PO, 24 h, 10 mg/kg): 15% and 29%
- % BTK Remaining ([3]; 30 mg/kg PO, 2 h): 83%
- % BTK Remaining ([3]; 30 mg/kg PO, 4 h): 47%
- % BTK Remaining ([3]; 30 mg/kg PO, 8 h): 22%
- % BTK Remaining ([3]; 30 mg/kg PO, 24 h): 17%
- % BTK Remaining ([3]; 100 mg/kg PO, 2 h): 48%
- % BTK Remaining ([3]; 100 mg/kg PO, 4 h): 27%
- % BTK Remaining ([3]; 100 mg/kg PO, 8 h): 12%
- % BTK Remaining ([3]; 100 mg/kg PO, 24 h): 8%
- Tumor Growth Inhibition (relative to vehicle) ([4]; 5 mg/kg, BID, 23 days of dosing): 65%
- Tumor Growth Inhibition (relative to vehicle) ([4]; 15 mg/kg, BID, 23 days of dosing): 62%
- Tumor Growth Inhibition (relative to vehicle) ([4]; 30 mg/kg, BID, 23 days of dosing): 70% and 78%
- Tumor Growth Inhibition (relative to vehicle) [4, 14]: 48% and 51% and 36%
- Tumor Growth Inhibition (relative to vehicle) ([4]; 60 mg/kg, QD, 23 days of dosing): 70%
- DC50 [5]: 1 nM
- EC50 [6]: 8.1 nM
- EMAX (% viable cells) [6]: 25%

SMILES: CN1CCN([C@@H]2CCCN(c3cnc(C(N)=O)c(Nc4ccc(C5CCN(CC6CCN(c7ccc8c(=O)n(C9CCC(=O)NC9=O)ccc8c7)CC6)CC5)cc4)n3)C2)C1=O (stereo partly drawn) [Compound 72]
- % BTK Remaining [2, 13]: 20%
- EC50 [6]: 1.16 nM
- EMAX (% viable cells) [6]: 21%

SMILES: CN1CCN([C@@H]2CCCN(c3cnc(C(N)=O)c(Nc4ccc(C5CCN(CC6CCN(c7ccc(-c8nn(C9CCC(=O)NC9=O)c(=O)n8C)cc7)CC6)CC5)cc4)n3)C2)C1=O (stereo partly drawn) [Compound 121]
- % BTK Remaining ([2]; oral dose 0.3 mg/kg, 24 h, blood, flow cytometry): 102%
- % BTK Remaining ([2]; oral dose 3 mg/kg, 24 h, blood, flow cytometry): 68%
- % BTK Remaining [2, 15]: 28%
- % BTK Remaining [2, 13]: 33%
- EC50 [6]: 4.94 nM
- EMAX (% viable cells) [6]: 31%

SMILES: CN1CCN([C@H]2CCCN(c3cnc(C(N)=O)c(Nc4ccc(C5CCN(CC6CCN(c7ccc(C(=O)NC8CCC(=O)NC8=O)nc7)CC6)CC5)cc4)n3)C2)C1=O (stereo partly drawn) [Compound 130]
- % BTK Remaining in B cells [1, 7]: 6%
- % BTK Remaining in B cells [1, 8]: 5%
- % BTK Remaining in B cells [1, 9]: 3%
- % BTK Remaining in B cells [1, 10]: 5%
- % BTK Remaining in B cells [1, 11]: 4%
- % BTK Remaining in B cells [1, 12]: 4%
- % BTK Remaining [2, 15]: 5%
- % BTK Remaining ([3]; 1 mg/kg IV, 2 h): 8%
- % BTK Remaining ([3]; 1 mg/kg IV, 4 h): 6%
- % BTK Remaining ([3]; 1 mg/kg IV, 8 h): 5%
- % BTK Remaining ([3]; 1 mg/kg IV, 24 h): 13%
- % BTK Remaining ([3]; 10 mg/kg PO, 2 h): 4%
- % BTK Remaining ([3]; 10 mg/kg PO, 4 h): <1%
- % BTK Remaining ([3]; 10 mg/kg PO, 8 h): <3%
- % BTK Remaining ([3]; 10 mg/kg PO, 24 h): <1%
- % BTK Remaining ([3]; 30 mg/kg PO, 2 h): 6%
- % BTK Remaining ([3]; 30 mg/kg PO, 4 h): <1%
- % BTK Remaining ([3]; 30 mg/kg PO, 8 h): <1%
- % BTK Remaining ([3]; 30 mg/kg PO, 24 h): 1%
- Tumor Growth Inhibition (relative to vehicle) ([4]; 10 mg/kg, QD, 23 days of dosing): 58%
- Tumor Growth Inhibition (relative to vehicle) ([4]; 10 mg/kg, QD, 24 days of dosing): 90%
- Tumor Growth Inhibition (relative to vehicle) [4, 14]: 79%
- Tumor Growth Inhibition (relative to vehicle) ([4]; 30 mg/kg, QD, 24 days of dosing): 100%
- Tumor Growth Inhibition (relative to vehicle) ([4]; 90 mg/kg, QD, 24 days of dosing): 100%
- DC50 [5]: 2 nM
- EC50 [6]: 4.83 nM
- EMAX (% viable cells) [6]: 33%
